Data taken from patent US20240360178A1, “MACROCYCLIC IMMUNOMODULATORS” (Bristol-Myers Squibb Company, priority 2021, published 2024).
Positions of bridges follow the written chain, without caps; N, C: chain ends. Non-standard residues stand in square brackets, D forms with d. Residues, ends and D or L forms follow the SMILES beside them. *: point of attachment. Ala(indol-4-yl) = N[C@@H](Cc1cccc2[nH]ccc12)C(=O)O; Phe(3-CF3) = N[C@@H](Cc1cccc(C(F)(F)F)c1)C(=O)O; Phe(4-COOH) = N[C@@H](Cc1ccc(C(=O)O)cc1)C(=O)O; Bip = N[C@@H](Cc1ccc(-c2ccccc2)cc1)C(=O)O; Phe(3-Me) = Cc1cccc(C[C@H](N)C(=O)O)c1; NMeF = CN[C@@H](Cc1ccccc1)C(=O)O; 4Pal = N[C@@H](Cc1ccncc1)C(=O)O; Cha = N[C@@H](CC1CCCCC1)C(=O)O; Cit = NC(=O)NCCC[C@H](N)C(=O)O; NMeN = CN[C@@H](CC(N)=O)C(=O)O; Carboxymethyl = O=C(O)C*; NMeA = CN[C@@H](C)C(=O)O; Orn = NCCC[C@H](N)C(=O)O; Dab = NCC[C@H](N)C(=O)O; Dap = NC[C@H](N)C(=O)O; Sar = CNCC(=O)O

Target: T1, human PD-1 (Jurkat-PD-1 cells) / PE-labeled human PD-L1-Ig (Homo sapiens, UniProt Q15116)
T1 construct: expressed in transfected cells; host or cells: Jurkat cell line over-expressing human PD-1
Assay: Jurkat-PD-1 Cell Binding High-Content Screening Assay (CBA); Jurkat hPD1-PDL1 assay
Settings: Jurkat cell line over-expressing human PD-1; PE-labeled PD-L1-Ig 20 nM final; compound incubated 2 hours at 37° C.; read-out: Jurkat HPD1-PDL1 IC50
Summary of the method: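 Compound was added to Jurkat-PD-1 cells in DMEM plus 10% fetal calf serum and incubated 2 hours at 37° C. Binding of phycoerythrin-conjugated PD-L1-Ig (20 nM final) to the cells was imaged.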

T1 sequence (Q15116 25-288): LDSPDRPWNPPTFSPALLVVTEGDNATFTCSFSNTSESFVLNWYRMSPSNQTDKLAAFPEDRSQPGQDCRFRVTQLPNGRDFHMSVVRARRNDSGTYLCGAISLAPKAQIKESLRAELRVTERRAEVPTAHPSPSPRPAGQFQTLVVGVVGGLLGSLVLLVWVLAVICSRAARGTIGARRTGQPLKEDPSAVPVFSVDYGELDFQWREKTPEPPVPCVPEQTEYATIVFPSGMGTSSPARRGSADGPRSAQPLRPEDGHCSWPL

Row | Compound | IC50 [nM]
1 | CC(C)C[C@@H]1NC(=O)[C@H](Cc2c[nH]c3ccccc23)NC(=O)[C@H](CC(=O)O)NC(=O)[C@H](Cc2ccc(O)cc2)NC(=O)[C@H](Cc2c[nH]c3ccccc23)NC(=O)CSC[C@@H](C(=O)NCC(N)=O)NC(=O)[C@H](CO)NC(=O)[C@H](C(C)C)NC(=O)[C@H](CC(C)C)NC(=O)[C@H](CC(N)=O)NC(=O)CN(C)C(=O)[C@H](C)N(C)C(=O)[C@H](C(C)C)NC(=O)[C@H](Cc2ccc(-c3ccccc3)cc2)NC1=O [Example 1135] ({CH2CO}-WYDWL[Bip]V[NMeA][Sar]NLVSCG-NH2; thioether N-14) | 550
2 | CC(C)C[C@@H]1NC(=O)[C@H](Cc2cccc3[nH]ccc23)NC(=O)[C@H](CC(=O)O)NC(=O)[C@H](Cc2ccc(O)cc2)NC(=O)[C@H](Cc2ccccc2)NC(=O)CSC[C@@H](C(=O)N[C@@H](C)C(N)=O)NC(=O)[C@H](CO)NC(=O)[C@H](C(C)C)NC(=O)[C@H](CC(C)C)NC(=O)[C@H](CC(N)=O)NC(=O)CN(C)C(=O)[C@H](C)N(C)C(=O)[C@H](C(C)C)NC(=O)[C@H](Cc2ccc(-c3ccccc3)cc2)NC1=O [Example 1124] ({CH2CO}-FYD[Ala(indol-4-yl)]L[Bip]V[NMeA][Sar]NLVSCA-NH2; thioether N-14) | 450
3 | CC(C)C[C@@H]1NC(=O)[C@H](Cc2c[nH]c3ccccc23)NC(=O)[C@H](CC(=O)O)NC(=O)[C@H](Cc2ccc(O)cc2)NC(=O)[C@H](Cc2ccccc2)NC(=O)CSC[C@@H](C(=O)NCC(N)=O)NC(=O)[C@H](CO)NC(=O)[C@H](C(C)C)NC(=O)[C@H](CC(C)C)NC(=O)[C@H](CC(N)=O)NC(=O)[C@H](CC(N)=O)N(C)C(=O)[C@H](C)N(C)C(=O)[C@H](C(C)C)NC(=O)[C@H](Cc2ccc(-c3ccccc3)cc2)NC1=O [Example 1148] ({CH2CO}-FYDWL[Bip]V[NMeA][NMeN]NLVSCG-NH2; thioether N-14) | 670
4 | CC(C)C[C@@H]1NC(=O)[C@H](CCCNC(=N)N)NC(=O)[C@H](Cc2ccccc2)N(C)C(=O)[C@H](C)N(C)C(=O)[C@H](CCCNC(=N)N)NC(=O)[C@H](Cc2ccc(-c3ccccc3)cc2)NC(=O)[C@H](C(C)C)NC(=O)[C@H](Cc2c[nH]c3ccccc23)NC(=O)[C@H](CC(=O)O)NC(=O)[C@H](Cc2ccc(OCC(=O)O)cc2)NC(=O)[C@H](Cc2ccccc2)NC(=O)CSC[C@@H](C(=O)NCC(N)=O)NC(=O)[C@H](CO)NC(=O)[C@H](C(C)C)NC1=O [Example 1275] ({CH2CO}-FY(Carboxymethyl)DWV[Bip]R[NMeA][NMeF]RLVSCG-NH2; thioether N-14) | 30
5 | CC(C)[C@@H]1NC(=O)[C@H](Cc2c[nH]c3ccccc23)NC(=O)[C@H](CC(=O)O)NC(=O)[C@H](Cc2ccncc2)NC(=O)[C@H](CN)NC(=O)CSC[C@@H](C(=O)N[C@@H](C)C(N)=O)NC(=O)[C@H]([C@@H](C)O)NC(=O)[C@H](C(C)C)NC(=O)[C@H](CC2CCCCC2)NC(=O)[C@H](CCN)NC(=O)[C@H](Cc2ccccc2)N(C)C(=O)[C@H](CCCN)NC(=O)[C@H](CCC(=O)O)NC(=O)[C@H](Cc2ccc(-c3ccccc3)cc2)NC1=O [Example 1439] ({CH2CO}-[Dap][4Pal]DWV[Bip]E[Orn][NMeF][Dab][Cha]VTCA-NH2; thioether N-14) | 90
6 | CC(C)C[C@@H]1NC(=O)[C@H](CCN)NC(=O)[C@H](Cc2ccccc2)N(C)C(=O)[C@H](C)N(C)C(=O)[C@H](CCCNC(N)=O)NC(=O)[C@H](Cc2ccc(-c3ccccc3)cc2)NC(=O)[C@H](C(C)C)NC(=O)[C@H](Cc2cccc(C(F)(F)F)c2)NC(=O)[C@H](CC(=O)O)NC(=O)[C@H](Cc2ccc(O)cc2)NC(=O)[C@H](CC(N)=O)NC(=O)CSC[C@@H](C(=O)N[C@@H](C)C(N)=O)NC(=O)[C@H]([C@@H](C)O)NC(=O)[C@H](C(C)C)NC1=O [Example 1376] ({CH2CO}-NYD[Phe(3-CF3)]V[Bip][Cit][NMeA][NMeF][Dab]LVTCA-NH2; thioether N-14) | 70
7 | CC(C)C[C@@H]1NC(=O)[C@H](Cc2c[nH]c3ccccc23)NC(=O)[C@H](CC(=O)O)NC(=O)[C@H](Cc2ccc(O)cc2)NC(=O)[C@H](Cc2ccccc2)NC(=O)CSC[C@@H](C(=O)NCC(N)=O)NC(=O)[C@H](CO)NC(=O)[C@H](C(C)C)NC(=O)[C@H](CC(C)C)NC(=O)[C@H](C(C)C)NC(=O)CN(C)C(=O)[C@H](C)N(C)C(=O)[C@H](CCCNC(=N)N)NC(=O)[C@H](Cc2ccc(-c3ccccc3)cc2)NC1=O [Example 1232] ({CH2CO}-FYDWL[Bip]R[NMeA][Sar]VLVSCG-NH2; thioether N-14) | 330
8 | Cc1cccc(C[C@@H]2NC(=O)[C@H](CC(=O)O)NC(=O)[C@H](Cc3ccc(O)cc3)NC(=O)[C@H](Cc3ccccc3)NC(=O)CSC[C@@H](C(=O)N[C@@H](C)C(N)=O)NC(=O)[C@H](CO)NC(=O)[C@H](C(C)C)NC(=O)[C@H](CC(C)C)NC(=O)[C@H](CC(N)=O)NC(=O)CN(C)C(=O)[C@H](C)N(C)C(=O)[C@H](C(C)C)NC(=O)[C@H](Cc3ccc(-c4ccccc4)cc3)NC(=O)[C@H](CC(C)C)NC2=O)c1 [Example 1053] ({CH2CO}-FYD[Phe(3-Me)]L[Bip]V[NMeA][Sar]NLVSCA-NH2; thioether N-14) | 120
9 | CC(C)C[C@@H]1NC(=O)[C@H](CCCNC(=N)N)NC(=O)[C@H](Cc2ccccc2)N(C)C(=O)[C@H](C)N(C)C(=O)[C@H](CCCNC(=N)N)NC(=O)[C@H](Cc2ccc(-c3ccccc3)cc2)NC(=O)[C@H](C(C)C)NC(=O)[C@H](Cc2c[nH]c3ccccc23)NC(=O)[C@H](CC(=O)O)NC(=O)[C@H](Cc2ccc(O)cc2)NC(=O)[C@H](Cc2ccccc2)NC(=O)CSC[C@@H](C(=O)N[C@@H](C)C(N)=O)NC(=O)[C@H](CO)NC(=O)[C@H](C(C)C)NC1=O [Example 1074] ({CH2CO}-FYDWV[Bip]R[NMeA][NMeF]RLVSCA-NH2; thioether N-14) | 190
10 | CC(C)C[C@@H]1NC(=O)[C@H](Cc2c[nH]c3ccccc23)NC(=O)[C@H](CC(=O)O)NC(=O)[C@H](Cc2ccc(O)cc2)NC(=O)[C@H](Cc2ccccc2)NC(=O)CSC[C@@H](C(=O)N[C@@H](C)C(N)=O)NC(=O)[C@H](CO)NC(=O)[C@H](C(C)C)NC(=O)[C@H](CC(C)C)NC(=O)[C@H](CCN)NC(=O)[C@H]2CCCN2C(=O)[C@H](C)N(C)C(=O)[C@H](C(C)C)NC(=O)[C@H](Cc2ccc(-c3ccccc3)cc2)NC1=O [Example 1397] ({CH2CO}-FYDWL[Bip]V[NMeA][dP][Dab]LVSCA-NH2; thioether N-14) | 40
11 | CC(C)C[C@@H]1NC(=O)[C@H](CCCNC(=N)N)NC(=O)[C@H](Cc2ccccc2)N(C)C(=O)[C@H](C)N(C)C(=O)[C@H](CCCNC(N)=O)NC(=O)[C@H](Cc2ccc(-c3ccccc3)cc2)NC(=O)[C@H](C(C)C)NC(=O)[C@H](Cc2c[nH]c3ccccc23)NC(=O)[C@H](CC(=O)O)NC(=O)[C@H](Cc2ccc(O)cc2)NC(=O)[C@H](CC(N)=O)NC(=O)CSC[C@@H](C(=O)N[C@@H](C)C(N)=O)NC(=O)[C@H](CCCN)NC(=O)[C@H](C(C)C)NC1=O [Example 1371] ({CH2CO}-NYDWV[Bip][Cit][NMeA][NMeF]RLV[Orn]CA-NH2; thioether N-14) | 230
12 | CC(C)C[C@@H]1NC(=O)[C@H](CCCNC(=N)N)NC(=O)[C@H](Cc2ccccc2)N(C)C(=O)[C@H](C)N(C)C(=O)[C@H](CCCNC(=N)N)NC(=O)[C@H](Cc2ccc(-c3ccccc3)cc2)NC(=O)[C@H](C(C)C)NC(=O)[C@H](Cc2c[nH]c3ccccc23)NC(=O)[C@H](CC(=O)O)NC(=O)[C@H](Cc2ccc(O)cc2)NC(=O)[C@H](Cc2cnc[nH]2)NC(=O)CSC[C@@H](C(=O)NCC(N)=O)NC(=O)[C@H](CO)NC(=O)[C@H](C(C)C)NC1=O [Example 1058] ({CH2CO}-HYDWV[Bip]R[NMeA][NMeF]RLVSCG-NH2; thioether N-14) | 130
13 | CC(C)C[C@@H]1NC(=O)[C@H](Cc2c[nH]c3ccccc23)NC(=O)[C@H](CC(=O)O)NC(=O)[C@H](Cc2ccncc2)NC(=O)[C@H](Cc2ccccc2)NC(=O)CSC[C@@H](C(=O)N[C@@H](C)C(N)=O)NC(=O)[C@H](CO)NC(=O)[C@H](C(C)C)NC(=O)[C@H](CC(C)C)NC(=O)[C@H](CC(N)=O)NC(=O)CN(C)C(=O)[C@H](C)N(C)C(=O)[C@H](C(C)C)NC(=O)[C@H](Cc2ccc(-c3ccccc3)cc2)NC1=O [Example 1064] ({CH2CO}-F[4Pal]DWL[Bip]V[NMeA][Sar]NLVSCA-NH2; thioether N-14) | 160
14 | CC(C)C[C@@H]1NC(=O)[C@H](Cc2c[nH]c3ccccc23)NC(=O)[C@H](CC(=O)O)NC(=O)[C@H](Cc2ccc(O)cc2)NC(=O)[C@H](CC(N)=O)NC(=O)CSC[C@@H](C(=O)N[C@@H](C)C(N)=O)NC(=O)[C@H]([C@@H](C)O)NC(=O)[C@H](C(C)C)NC(=O)[C@H](CC(C)C)NC(=O)[C@H](CC(N)=O)NC(=O)[C@H]2CCCN2C(=O)[C@H](CCCN)NC(=O)[C@H](C(C)C)NC(=O)[C@H](Cc2ccc(-c3ccccc3)cc2)NC1=O [Example 1426] ({CH2CO}-NYDWL[Bip]V[Orn][dP]NLVTCA-NH2; thioether N-14) | 220
15 | CC(C)C[C@@H]1NC(=O)[C@H](Cc2c[nH]c3ccccc23)NC(=O)[C@H](CC(=O)O)NC(=O)[C@H](Cc2ccc(C(=O)O)cc2)NC(=O)[C@H](Cc2ccccc2)NC(=O)CSC[C@@H](C(=O)N[C@@H](C)C(N)=O)NC(=O)[C@H](CO)NC(=O)[C@H](C(C)C)NC(=O)[C@H](CC(C)C)NC(=O)[C@H](CC(N)=O)NC(=O)CN(C)C(=O)[C@H](C)N(C)C(=O)[C@H](C(C)C)NC(=O)[C@H](Cc2ccc(-c3ccccc3)cc2)NC1=O [Example 1066] ({CH2CO}-F[Phe(4-COOH)]DWL[Bip]V[NMeA][Sar]NLVSCA-NH2; thioether N-14) | 160
16 | CC(C)C[C@@H]1NC(=O)[C@H](CCCNC(=N)N)NC(=O)[C@H](Cc2ccccc2)N(C)C(=O)[C@@H](CCCCN)NC(=O)[C@H](CCCNC(=N)N)NC(=O)[C@H](Cc2ccc(-c3ccccc3)cc2)NC(=O)[C@H](C(C)C)NC(=O)[C@H](Cc2c[nH]c3ccccc23)NC(=O)[C@H](CC(=O)O)NC(=O)[C@H](Cc2ccc(O)cc2)NC(=O)[C@H](CC(N)=O)NC(=O)CSC[C@@H](C(=O)N[C@@H](C)C(N)=O)NC(=O)[C@H]([C@@H](C)O)NC(=O)[C@H](C(C)C)NC1=O [Example 1369] ({CH2CO}-NYDWV[Bip]R[dK][NMeF]RLVTCA-NH2; thioether N-14) | 330
